Biological target: T1, recombinant BOD (bilirubin oxidase) derived from Myrothecium verrucaria MT-1 (Albifimbria verrucaria, UniProt Q12737)
T1 construct: made in house; host or cells: Aspergillus sp
T1 sequence (Q12737 39-572): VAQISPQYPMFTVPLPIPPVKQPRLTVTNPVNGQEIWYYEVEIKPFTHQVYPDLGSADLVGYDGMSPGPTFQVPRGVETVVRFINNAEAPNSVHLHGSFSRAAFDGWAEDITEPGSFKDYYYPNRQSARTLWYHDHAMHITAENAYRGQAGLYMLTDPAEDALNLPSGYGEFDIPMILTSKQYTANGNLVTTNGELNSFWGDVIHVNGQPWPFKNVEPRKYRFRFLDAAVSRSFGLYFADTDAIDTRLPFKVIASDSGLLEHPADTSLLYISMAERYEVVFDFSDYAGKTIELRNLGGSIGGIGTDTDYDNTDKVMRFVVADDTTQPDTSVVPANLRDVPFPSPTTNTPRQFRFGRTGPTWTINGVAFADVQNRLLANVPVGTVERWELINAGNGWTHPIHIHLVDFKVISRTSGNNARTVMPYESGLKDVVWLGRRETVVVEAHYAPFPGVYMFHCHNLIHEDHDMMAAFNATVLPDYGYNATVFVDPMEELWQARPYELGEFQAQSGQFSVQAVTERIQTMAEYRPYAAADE
Experiment: BOD activity after leaving the BOD solution with an activity improving agent or comparative substance at 30° C. in a deoxygenated atmosphere (Test Example 1)
Format: biochemical
Conditions: relative to Day 0, additive concentration as in Table 1; for Activity (%) Day 47: left 47 days at 30° C.
Method: A BOD solution, which contains: a BOD; and the present activity improving agent or a comparative substance, was left in an environment at a temperature of 30° C. in a deoxygenated atmosphere for a certain period of time. After the BOD solution was left as above, improvement of the BOD activity by the present activity improving method was evaluated by measurement of the BOD activity.
In Test Example 1, a BOD gene derived from a Myrothecium verrucaria MT-1 (GenBank accession number: D12579.1) was introduced into an Aspergillus sp., and then a recombinant BOD (hereinafter, also referred to simply as “BOD”) expressed in the Aspergillus sp. was purified by using a well-known technique and then used as the BOD. The BOD gene derived from the Myrothecium verrucaria MT-1 was codon-optimized in accordance with a gene sequence of the Aspergillus sp., and then introduced into the Aspergillus sp. Further, the BOD thus purified was dissolved in a 50 mM glycine-KOH (pH 8.5) buffer so that the concentration of the BOD became 1.0 mg/mL. Then, a resultant solution was used as a BOD enzyme solution.
The enzymatic activity of the BOD was measured as follows. To 1780 μL of a 50 mM potassium phosphate buffer (pH 6.5), 200 μL of a 20 mM ABTS substrate solution was added, so that a mixed solution (1980 μL) was prepared. This mixed solution was incubated for 1 min at 37° C. Thereafter, 20 μL of a solution containing the BOD (specifically, a BOD solution for evaluation, which will be described later) was added to the mixed solution, and a resultant mixed solution (2 mL) was incubated at 37° C. While the mixed solution was incubated, the absorbance of the mixed solution at a wavelength of 436 nm was measured immediately after that addition of the BOD solution for evaluation (at 0 seconds) and thereafter every 20 seconds. On the basis of (i) the absorbance of the mixed solution at a wavelength of 436 nm immediately after the addition of the BOD solution for evaluation and (ii) the absorbance of the mixed solution at a wavelength of 436 nm after a lapse of 1 minute from the addition of the BOD solution for evaluation, calculation was carried out for obtaining an increase rate per minute of the absorbance of the mixed solution at a wavelength of 436 nm after the addition of the BOD solution for evaluation. The BOD activity (unit) in the BOD solution for evaluation was calculated from the increase rate. In the present specification, the amount of enzyme for oxidizing 1 μmol of ABTS per minute was defined as one unit.
A specific test method of Test Example 1 is as follows. To a BOD enzyme solution containing a BOD, one of the above-described present activity improving agents was added, so that a BOD solution (which is the BOD solution according to an embodiment of the present invention) was prepared. Further, one of the above-described comparative substances was added to the BOD enzyme solution, so that another BOD solution was prepared. In addition, still another BOD solution was prepared by adding, to the BOD enzyme solution, distilled water in place of the activity improving agent or the comparative substance, so that a control (denoted as Without additive in Tables 1 to 3) was prepared. The final concentration of the activity improving agent or the comparative substance in each of the above BOD solutions was shown in “mM” or “percentage (%)” (amount (g) of the activity improving agent or the comparative substance relative to 100 mL of the BOD solution) in Table 1.
Thereafter, one of these BOD solutions and a deoxygenating agent (Anaero Pack manufactured by Mitsubishi Gas Chemical Company, Inc.) were included in one container. Then, the container was sealed, so that a BOD container was prepared. The BOD container was left in an environment at a temperature of 30° C. in a deoxygenated atmosphere for 47 days (Table 2) or 14 days (Table 3). […]

Row | SMILES | Activity (%) Day 47 [%] | Activity (%) Day 14 (left 14 days at 30° C.) [%]
1 | O=C1O[C@H]([C@@H](O)CO)C(O)=C1O [L-ascorbic acid] | 151 | –
2 | O=c1[nH]c(=O)c2[nH]c(=O)[nH]c2[nH]1 [Uric acid, uric acid] | 155 | 156
